In patent US6132711A, “Enzymatic antioxidant of allene oxide for lipid peroxidation in biological systems” (Arizona Board of Regents, priority 1997, dated 2000):
Entries after “also recorded” stand apart in the source; their conditions may differ.

T1: AOS (Parthenium argentatum, UniProt Q40778)
T1 sequence (Q40778 1-473): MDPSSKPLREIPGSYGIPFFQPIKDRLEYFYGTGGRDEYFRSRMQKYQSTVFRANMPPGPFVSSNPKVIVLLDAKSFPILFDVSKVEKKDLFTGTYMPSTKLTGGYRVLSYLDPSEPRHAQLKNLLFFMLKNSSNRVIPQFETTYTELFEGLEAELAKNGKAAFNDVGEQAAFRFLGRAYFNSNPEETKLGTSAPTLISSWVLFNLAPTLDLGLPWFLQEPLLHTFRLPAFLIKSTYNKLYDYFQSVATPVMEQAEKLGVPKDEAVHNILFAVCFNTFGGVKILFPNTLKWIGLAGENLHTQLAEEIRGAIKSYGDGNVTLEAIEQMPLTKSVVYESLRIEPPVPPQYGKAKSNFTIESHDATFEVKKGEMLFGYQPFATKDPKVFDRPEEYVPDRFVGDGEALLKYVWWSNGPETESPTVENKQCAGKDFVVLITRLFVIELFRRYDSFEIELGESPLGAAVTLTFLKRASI

B1: RPP: polypeptide of 53,500 Daltons from guayule rubber particles; non-mono-oxygenase cytochrome P450 heme-binding protein, a species of allene oxide synthase (protein)
chain: MDPSSKPLREIPGSYGIPFFQPIKDRLEYFYGTGGRDEYFRSRMQKYQSTVFRANMPPGPFVSSNPKVIVLLDAKSFPILFDVSKVEKKDLFTGTYMPSTKLTGAYRVLSYLDPSEPRHAQLKNLLFFMLKNSSNRVIPQFETTYYELFEGLEAELAKNGKAAFNDVGEQAAFRFLGRAYFNSNPEETKLGTSAPTLISSWVLFNLAPTLDLGLPWFLQEPLLHTFRLPAFLIKSTYNKLYDYFQSVATPVMEQAEKLGVPKDEAVHNILFAVCFNTFGGVKILFPNTLKWIGVAGENLHTQLAEEIRGAIKSYGDGNVTLEAIEQMPLTKSVVYESLRIEPPVPPQYGKAKSNFTIESHDATFEVKKGEMLFGYQPFATKDPKVFDRPEEFVPDRFVGDGEALLKYVWWSNGPETESPTVENKQCAGKDFVVLITRLFVIELFRRYDSEIELGESPLGAAVTLTFLKRASI

How the values were obtained:
[1] = target: T1, AOS; assay: Conjugated dienes in lipids extracted from rubber particles incubated with H2O2 (A234); assay type: biochemical, guayule; parameters: from tissue; host or cells: washed rubber particles of guayule, carrying the endogenous AOS; conditions: 1 mM inhibitor, 0.05% H2O2
From the text: Lipids from these particles were extracted and analyzed spectrophotometrically at 234 nm according to Aust, Lipid peroxidation, In: Greenwald R (ed) CRC Handbook of Methods for Oxygen Radical Research, CRC Press, Boca Raton, pp. 203-207 (1985).

[2] = target: T1, AOS; conditions: rubber particles in presence of 1 mM ASA
[3] = target: T1, AOS; assay: Superoxide/colorimetry (riboflavin/TEMED/NBT) assay; conditions: rubber particles incubated with inhibitor
Description: A 1-5 μl suspension of fatty acids or rubber particles (at 100 μg μl^-1) was added directly to 200 μl 50 mM potassium phosphate buffer, pH 8.0 containing 2.8 μM riboflavin and 28 mM tetramethyllethylenediamine (TEMED). […] Superoxide was generated by exposing the combined particles and riboflavin/TEMED solution to light, provided by a 100 W bulb, spaced 30 cm from the suspension, for 10 minutes. The degree of reduction was then determined by adding 200 μl 50 mM potassium phosphate buffer, pH 8.0 containing 2.45 mM nitroblue tetrazolium (NBT) and monitoring for 10 min. Reduction of NBT caused a yellow to blue color change. The effect of CO on AOS inhibition and its reversal by exposure to high light was tested by placing the CO and O2 treated suspension directly in front of a water-cooled, slide projector lamp and exposing the mixture to bright light for 1, 5 or 10 min before performing the NBT assay.
If SOD is present, NBT remains yellow. […] If AOS were active, rubber particles would be protected from peroxidation and NBT would be reduced by superoxide resulting in a blue color. However, if AOS were inactivated, then rubber particles would act as a sink for superoxide and NBT would not be reduced to blue tetrasodium,or would be reduced at a slower rate. For this assay to work, endogenous SOD must not be present in rubber particles.

[4] = target: T1, AOS; assay: Fluorescence spectroscopy of rubber particles incubated with AOS inhibitors; assay type: biochemical, guayule; parameters: from tissue; host or cells: washed rubber particles of guayule, carrying the endogenous AOS; conditions: native rubber particles incubated with 1 mM inhibitor
Description: Rubber particle suspensions containing approximately 5×10^10 particles ml^-1 or 100 μg μl^-1 rubber were extracted for lipids and analyzed according to Yao et al., J Cell Biochem 51: 488-494 (1993); Eldred, Anal. Biochem. 64: 23-36 (1987), Malshet et al., Lipids 9: 328-332 (1974) and above (see sec. 8.1) using a FluoroMax spectrofluoromoeter (JY/SPEX Instruments SA, Inc.) with an excitation maxima of 300 nm and an emission maxima of 405 nm. Background fluorescence was automatically subtracted. […] The effect of pH on relative fluorescence spectroscopy was performed. The effect of pH on relative fluorescence intensities was also determined on lipids extracted from rubber particle lipids according to Malshet et al., Lipids 9: 328-332 (1974).

[5] = test system: linoleic acid conjugated dienes; assay: UV spectrophotometry of superoxide-induced linoleic acid conjugated dienes (A234); assay type: biochemical, guayule
Description: Likewise, the effect of superoxide, produced by the riboflavin/TEMED mixture and light, on lipid peroxidation was determined. […] The mixture was exposed to light and scanned in a UV spectrophotometer at 200 to 300 nm at 10 sec intervals for 2 minutes and again at 5 and 10 min. The effect of AOS on superoxide-inducedlinoleic hydroperoxides was determined using partially pure AOS solubilized from fresh rubber particles using the CHAPS extraction and filtration procedure (Pan et al., J Biol Chem 270: 8487-8494, 1995), which removed all remaining rubber. One μg partially pure AOS was added to oxidized linoleic acid and UV scanned at 2 minute intervals.
This mixture was scanned at A234 followed by addition of riboflavin/TEMED and exposure to 10 min. of light, to produce superoxide. The mixture was rescanned at 10 min intervals.

[6] = test system: rubber transferase (RuT); assay: Rubber transferase assay in washed rubber particles ([14C]-IPP incorporation); assay type: biochemical, guayule; parameters: inhibition of RuT activity / inhibition of rubber biosynthesis: concentration or dose not given beside the values; conditions: for RuT activity: riboflavin/TEMED + dark (no superoxide)
Description: RuT assays were performed according to Cornish and Backhaus, Phytochemistry 29: 3809-3813 (1990) using a final reaction volume of 500 μl containing, at final concentration, 3.5 mM MgCl2, 2.5 mM MnCl2 26.7 μM FPP, 85 μM IPP and 1.48 μCi[^14 C]-IPP (sp. act. 57 mCi mM^-1 NEN DuPont) in 50 mM potassium phosphate buffer, pH 8.0. The reaction was initiated by the addition of 200 μl of fresh, triple-washed rubber particle suspensions containing 10-20 mg rubber. Control reactions were made to test IPP incorporation into rubber by omitting FPP or adding 50 mM EDTA to the reaction (Cornish and Backhaus, Phytochem. 29: 3809-3813 (1990)). To control AOS activity, one or more of the following was added to the reaction mix (final concentration): 0.5 to 2 mM SA, 0.5 to 2 mM ASA, 11.2 μM riboflavin plus 11.2 mM TEMED, 0.003% H2 O2, 2.0 U type II porcine pancreatic lipase (Sigma #L-3126) or 9450 U type V soybean lipoxygenase (Sigma #L-6632). These additions were made directly to the washed rubber particles and incubated for 20 min before adding to them to the reaction mix. In reactions that required dark conditions (to prevent the formation of superoxide), assay tubes were foil wrapped. […] H2 O2 was added directly to the particles and incubated for at least 20 min before adding SA or ASA. All RuT assays were run at 15° C. for 16 hours and activity was determined according to Cornish and Backhaus, Phytochemistry 29: 3809-3813 (1990) using liquid scintillation spectroscopy with toluene-based scintillant.

[7] = Prenyltransferase activity: incorporation of 14C-isopentenyl pyrophosphate into isoprenoid derivatives, TLC; assay type: biochemical, guayule; conditions: CHAPS-solubilized, filtered RPP; DMAPP as initiator; 100 μl aliquots
Description: Biochemical analyses were performed on RPP purified from rubber particles. Three-times-washed rubber particles were prepared by centrifugation according to Cornish and Backhaus, op cit. (1990) from a crude homogenate of guayule stembark. […] Prenyltransferase activity was determined for each purification step by measuring the incorporation of ^14 C-isopentenyl pyrophosphate into isoprenoid derivatives that were analyzed by TLC (benzene/ethyl acetate, 90/10) and autoradiography (Dogbo and Camara, Plant Sci. 49: 103-109 (1987); Kuntz et al., Plant J. 2:25-34 (1992)). Dimethylallyl pyrophosphate (DMAPP) was used as the initiator to measure activity in 100 μl aliquots of proteins from each of the three steps (FIG. 6B, lanes 1-3). […] However, prenyltransferase activity was present in both the crude homogenate and washed preparations containing rubber particles (cf. FIG. 6B, lane 3 with lanes 1 and 2). […]
Washed rubber particles were prepared by centrifugation according to Cornish and Backhaus, op cit.(1990) from a crude homogenate of guayule stembark. […] Prenyltransferase activity was determined for each purification step by measuring the incorporation of ^14 C-isopentenyl pyrophosphate into isoprenoid derivatives according to Dogbo and Camara, op cit. […]

[8] = test system: lipid hydroperoxides; conditions: Hamberg 1987; cited from earlier work
[9] = test system: linoleic acid hydro peroxide (LOOH); assay: AOS activity assay: degradation of linoleic hydroperoxide (LOOH) followed at 234 nm; assay type: biochemical, guayule
Description: A difference spectra of this extract clearly indicated a characteristic peak at 450 nm (arrow, FIG. 6C). […] This substrate was prepared according to Zimmerman (Zimmerman, Biochem. Biophys. Res. Comm. 23:398-403 (1966); Zimmerman and Feng, Lipids 13:313-316 (1978); Zimmerman and Vick, Plant. Physiol. 46:445-453 (1970)).
(1991) and Zimmerman, op cit. (1966); Zimmerman and Vick, op cit. (1970) and Zimmerman and Feng, op cit. (1978)

[10] = test system: tobacco leaf disks; assay: Cell leakage analysis of leaf disks treated with methyl viologen; assay type: cell-based, tobacco cv. Samsun; conditions: transgenic AOS tobacco vs untransformed control; 1.2 μM methyl viologen
Description: Transgenic cv. Samsun tobacco plants that […] AOS and untransformed cv. Samsun plants were gown in a growth chamber maintained at 28° C. and an irradiance of 500 μmole quanta per square meter per sec. at 16 hours per day. Leaf disks of transgenic plants (FIG. 20, disks 3, 6, 14 and 17) were compared with untransformed plants (FIG. 20, disk C) according to the general method set forth in Gupta et al., Proc. Natl. Acad. Sci. USA 90: 1629-1633 (1993).
Leaf disks (2 cm^2) were collected from tobacco plants and placed in petri dishes (15×60 mm) containing 4 ml of a 1.2 μM methyl viologen (MV) solution and vacuum infiltrated for 5 min. MV values are means ±SD (n=4). The samples were incubated at 22° C. for 16 hours in darkness followed by illumination at 500 μM quanta per square meter per sec. for 2 hours. The leaf disks then were incubated for an additional 16 hours in darkness.
The MV solution was collected for conductivity with leaf disks then was autoclaved for 10 min. at 121° C. The conductivity of the autoclaved solution was again measured. The present electrolyte leakage was determined by dividing the value of conductivity of MV solution by the value obtained after autoclaving.

[11] = Backhaus et al. 1991; cited from earlier work

Molecule | conjugated diene formation in extracted lipids (A234) [1] | fluorescence over 24 hr [2] | NBT color after superoxide [3] | fluorescence of rubber particles [4] | A234 on exposure to superoxide, AOS first incubated with inhibitor ([5]; AOS preincubated with 1 mM ASA, then linoleic acid + riboflavin/TEMED) | RuT activity ([6]; 0.5 mM inhibitor) | RuT activity ([6]; 1 mM inhibitor) | inhibition of RuT activity ([6]; salicylate + H2O2 in place of superoxide) [%] | inhibition of RuT activity ([6]; salicylate + non-photoreduced riboflavin/TEMED (no superoxide), compared to controls) [%] | inhibition of RuT activity ([6]; salicylate + superoxide (riboflavin/TEMED plus light)) [%] | prenyltransferase activity [7] | kcat [8] [s⁻¹] | AOS activity (LOOH degradation) ([9]; UV spectra at 10 sec intervals) | time to complete disappearance of LOOH (234 nm peak) ([9]; enzyme preparation added to cuvette with LOOH, repetitive UV scans at 10 sec intervals) [min] | percent electrolyte leakage [10] | A234 increase on exposure to light (superoxide) with AOS present ([5]; linoleic acid + riboflavin/TEMED + AOS) | A234 (conjugated dienes) after AOS added to oxidized linoleic acid ([5]; linoleic acid oxidized by riboflavin/TEMED in light, 1 μg partially pure AOS, listed as AOS) | isoelectric point (pI), experimental value [11]
CC(=O)Oc1ccccc1C(=O)O [ASA, acetylsalicylic acid] | Conjugated dienes formed only when AOS was inhibited by ASA in the presence of H2 O2 | fluorescence increased up to 12 hours and then plateaued | yellow | striking increase in fluorescence | notable increase in A234 | 599.3 ± 11.8 nmol IPP mg^-1 dry rubber 16 hr^-1 | 421.6 ± 105.4 nmol IPP mg^-1 dry rubber 16 hr^-1 | 89 | 20 | 88 | – | – | – | – | – | – | – | –
B1 | – | – | – | – | – | – | – | – | – | – | complete absence of prenyltransferase activity; also recorded: synthesizes no isoprenes | > 1000 | high AOS activity | 10 | substantially less percent electrolyte leakage | prevented the increase in A234 | A234 decreased; also recorded: time-dependent disappearance of conjugated dienes | 6.2
